In article PMC4045324 (Biochemistry, 2014):
Marks after values point to notes of the source that are not given here.

How the values were obtained:
[1] = tested on: wild-type MtDXR; conditions: ref Liu and Murkin 17; cited from earlier work
[2] = tested on: P. falciparum; conditions: cited from earlier work
[3] = biological target: wild-type MtDXR; conditions: pH 7.6; cited from earlier work
[4] = tested on: M. tuberculosis; conditions: cited from earlier work
[5] = biological target: wild-type MtDXR (Mycobacterium tuberculosis, UniProt P9WNS1); format: binding
[6] = biological target: DXR; conditions: read-out: Ki values; cited from earlier work
[7] = tested on: CC(=O)[C@@H](O)[C@H](O)COP(=O)(O)O; experiment: purified protein, by the assay type; conditions: pH 7.5; 25.0 °C

Chain of wild-type MtDXR (Mycobacterium tuberculosis, UniProt P9WNS1) (P9WNS1 1-389): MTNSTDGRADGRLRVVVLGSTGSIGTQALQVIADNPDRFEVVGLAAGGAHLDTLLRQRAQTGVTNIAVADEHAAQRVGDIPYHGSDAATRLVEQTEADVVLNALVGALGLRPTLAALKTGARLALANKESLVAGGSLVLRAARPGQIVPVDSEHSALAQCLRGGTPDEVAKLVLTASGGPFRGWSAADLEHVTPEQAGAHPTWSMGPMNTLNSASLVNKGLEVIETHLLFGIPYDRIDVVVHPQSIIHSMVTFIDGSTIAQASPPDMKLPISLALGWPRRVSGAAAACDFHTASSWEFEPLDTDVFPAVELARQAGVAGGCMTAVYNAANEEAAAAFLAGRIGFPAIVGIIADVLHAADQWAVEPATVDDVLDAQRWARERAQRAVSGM

## CC(=O)[C@@H](O)[C@H](O)COP(=O)(O)O [DXP, 1-deoxy-D-xylulose 5-phosphate]
[1]
  Km: 115 ± 7 µM

## O=CN(O)CCCP(=O)(O)O [fosmidomycin]
[2]
  treatment of malaria caused by P. falciparum: effective
[3]
  Kd: 290 nM
  ΔG°: –8.34 ^e kcal/mol
  ΔH°: –6.0 ^e kcal/mol
  –TΔS°: –2.3 ^e kcal/mol
[4]
  activity against M. tuberculosis: poorly active
[5]
  enthalpy share of total binding energy: 50%
[5]; pH 7.5
  ΔG°: –9.82 ± 0.08 kcal/mol
  ΔH°: –4.8 ± 0.7 kcal/mol
  –TΔS°: –5.0 ± 0.7 kcal/mol
[6]
  Ki: 10 to 100 nM

## (Mycobacterium tuberculosis H37Rv)
[7]
  Km: 137 ± 12 µM
  kcat: 4.2 ± 0.2 s⁻¹
  kcat/Km: 31000 ± 2000 M⁻¹ s⁻¹
